Patent US20240246977A1, “DEGRADATION OF BRUTON'S TYROSINE KINASE (BTK) BY CONJUGATION OF BTK INHIBITORS WITH E3 LIGASE LIGAND AND METHOD OF USE” (BeiGene Switzerland GmbH, priority 2021, published 2024)

Tests used:
HEK-293 cells = assay: HEK-293 cytotoxicity detection (CellTiter-Glo); type: cell-based; conditions: Homo sapiens, 72 h, 72 h incubation, CellTiter-Glo luminescence, read-out: HEK293
Outline: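 HEK-293 cells exposed 72 h to 8 compounds doses (4-fold dilutions, top stock 5 mM at 500×) in 0.2% DMSO. Viability by CellTiter-Glo luminescence; inhibition normalised to DMSO high control and low control, IC50 from four-parameter curve fit.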

BTK = BTK (Homo sapiens, UniProt Q06187); assay: BTK cell degradation in TMD-8 cells, HTRF assay; type: cell-based; set-up: endogenous in cells; host or cells: TMD-8 cells; conditions: 6 h treatment, IC50 (DC50) of BTK degradation
Outline: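 TMD-8 cells treated 6 h with 8-dose series (6-fold dilutions, 0.2% DMSO final), then lysed and BTK quantified by HTRF (337/665/620 nm) after overnight antibody incubation at room temperature. Degradation normalized to DMSO high and low controls; DC50 and Dmax from four-parameter fit.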

Sequence of BTK (Q06187 whole entry): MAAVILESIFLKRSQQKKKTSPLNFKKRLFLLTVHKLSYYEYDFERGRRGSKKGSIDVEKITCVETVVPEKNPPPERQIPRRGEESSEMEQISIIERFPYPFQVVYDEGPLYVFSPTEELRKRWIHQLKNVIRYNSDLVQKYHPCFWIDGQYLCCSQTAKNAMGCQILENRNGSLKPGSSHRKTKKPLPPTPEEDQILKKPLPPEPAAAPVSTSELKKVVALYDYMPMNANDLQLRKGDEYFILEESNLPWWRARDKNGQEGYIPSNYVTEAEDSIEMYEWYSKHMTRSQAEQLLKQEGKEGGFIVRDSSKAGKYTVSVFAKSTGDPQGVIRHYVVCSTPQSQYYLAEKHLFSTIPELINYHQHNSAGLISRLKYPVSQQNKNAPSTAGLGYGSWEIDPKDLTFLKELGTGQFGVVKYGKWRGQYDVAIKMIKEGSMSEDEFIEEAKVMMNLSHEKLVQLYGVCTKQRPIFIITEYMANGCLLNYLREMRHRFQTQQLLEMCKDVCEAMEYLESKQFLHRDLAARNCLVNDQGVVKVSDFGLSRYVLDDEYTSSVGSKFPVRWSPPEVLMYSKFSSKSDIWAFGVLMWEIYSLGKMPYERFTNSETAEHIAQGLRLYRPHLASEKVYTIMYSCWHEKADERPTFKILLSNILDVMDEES

DC50 (BTK) [nM] | Structure (SMILES) | IC50 (HEK-293 cells) [nM]
3.6 | COc1cc(Oc2ccccc2)ccc1-c1nn2c(c1C(N)=O)Nc1ccc(N3CCN(CC4CCN(c5ccc(N6CCC(=O)NC6=O)cc5)CC4)CC3)cc1CC2 [Example A36, 7-(4-((1-(4-(2,4-dioxotetrahydropyrimidin-1(2H)-yl)phenyl)piperidin-4-yl)methyl)piperazin-1-yl)-2-(2-methoxy-4-phenoxyphenyl)-9,10-dihydro-4H-benzo[d]pyrazolo[1,5-a][1,3]diazepine-3-carboxamide] | 148
24.9 | NC(=O)c1c(-c2ccc(Oc3ccccc3)cc2)nn2c1Nc1cc(OCCC3CCN(c4ccc(N5CCC(=O)NC5=O)cc4)CC3)ccc1CC2 [Example A25, 6-(2-(1-(4-(2,4-dioxotetrahydropyrimidin-1(2H)-yl)phenyl)piperidin-4-yl)ethoxy)-2-(4-phenoxyphenyl)-9,10-dihydro-4H-benzo[d]pyrazolo[1,5-a][1,3]diazepine-3-carboxamide] | > 10000
9.62 | NC(=O)c1c(-c2ccc(Oc3ccccc3)cc2)nn2c1Nc1cc(NC(=O)C3CCN(CC4CCN(c5ccc6c(c5)C(=O)N(C5CCC(=O)NC5=O)C6=O)CC4)CC3)ccc1CC2 (stereo not shown) [Example A18, 6-(1-((1-(2-(2,6-dioxopiperidin-3-yl)-1,3-dioxoisoindolin-5-yl)piperidin-4-yl)methyl)piperidine-4-carboxamido)-2-(4-phenoxyphenyl)-9,10-dihydro-4H-benzo[d]pyrazolo[1,5-a][1,3]diazepine-3-carboxamide] | 2510
6.66 | COc1cccnc1C(=O)NCc1ccc(-c2nn3c(c2C(N)=O)Nc2ccc(N4CCN(CC5CCN(c6ccc(N7CCC(=O)NC7=O)cc6)CC5)CC4)cc2CC3)cc1C [Example C36] | > 10000
3.3 | Cc1c(C(=O)Nc2cscn2)ccc(-c2nn3c(c2C(N)=O)Nc2ccc(N4CCN(C[C@H]5CCN(c6ccc(N7CCC(=O)NC7=O)cc6)C5)CC4)cc2CC3)c1F [Example B103, (R)-7-(4-((1-(4-(2,4-dioxotetrahydropyrimidin-1(2H)-yl)phenyl)pyrrolidin-3-yl)methyl)piperazin-1-yl)-2-(2-fluoro-3-methyl-4-(thiazol-4-ylcarbamoyl)phenyl)-9,10-dihydro-4H-benzo[d]pyrazolo[1,5-a][1,3]diazepine-3-carboxamide] | > 10000
0.928 | NC(=O)c1c(-c2ccc(C(=O)Nc3cc(C(F)(F)F)ccn3)c(Cl)c2)nn2c1Nc1ccc(N3CCN(CC4CCN(c5ccc(N6CCC(=O)NC6=O)cc5)CC4)CC3)cc1CC2 [Example B26, 2-(3-chloro-4-((4-(trifluoromethyl)pyridin-2-yl)carbamoyl)phenyl)-7-(4-((1-(4-(2,4-dioxotetrahydropyrimidin-1(2H)-yl)phenyl)piperidin-4-yl)methyl)piperazin-1-yl)-9,10-dihydro-4H-benzo[d]pyrazolo[1,5-a][1,3]diazepine-3-carboxamide] | > 10000
0.726 | Cc1cccc(NC(=O)c2ccc(-c3nn4c(c3C(N)=O)Nc3ccc(N5CCN(CC6CCN(c7ccc(N8CCC(=O)NC8=O)cc7)CC6)CC5)cc3CC4)c(F)c2C)n1 [Example B28, 7-(4-((1-(4-(2,4-dioxotetrahydropyrimidin-1(2H)-yl)phenyl)piperidin-4-yl)methyl)piperazin-1-yl)-2-(2-fluoro-3-methyl-4-((6-methylpyridin-2-yl)carbamoyl)phenyl)-9,10-dihydro-4H-benzo[d]pyrazolo[1,5-a][1,3]diazepine-3-carboxamide] | > 10000
1.85 | NC(=O)c1c(-c2ccc(Oc3ccccc3)cc2)nn2c1Nc1ccc(NC(=O)COCCOCCOCCOCCNc3cccc4c3C(=O)N(C3CCC(=O)NC3=O)C4=O)cc1CC2 (stereo not shown) [Example A2, 7-(14-((2-(2,6-dioxopiperidin-3-yl)-1,3-dioxoisoindolin-4-yl)amino)-3,6,9,12-tetraoxatetradecanamido)-2-(4-phenoxyphenyl)-9,10-dihydro-4H-benzo[d]pyrazolo[1,5-a][1,3]diazepine-3-carboxamide] | 557
4.2 | Cc1c(C(=O)Nc2cccc(-c3ccccc3)n2)ccc(-c2nn3c(c2C(N)=O)Nc2ccc(N4CCN(CC5CCN(c6ccc(N7CCC(=O)NC7=O)cc6)CC5)CC4)cc2CC3)c1F [Example B48, 7-(4-((1-(4-(2,4-dioxotetrahydropyrimidin-1(2H)-yl)phenyl)piperidin-4-yl)methyl)piperazin-1-yl)-2-(2-fluoro-3-methyl-4-((6-phenylpyridin-2-yl)carbamoyl)phenyl)-9,10-dihydro-4H-benzo[d]pyrazolo[1,5-a][1,3]diazepine-3-carboxamide] | > 10000
6.73 | NC(=O)c1c(-c2ccc(Oc3ccccc3)cc2)nn2c1Nc1cc(C3CCN(CC4CCN(c5ccc(N6CCC(=O)NC6=O)cc5)CC4)CC3)ccc1CC2 [Example A27, 6-(1-((1-(4-(2,4-dioxotetrahydropyrimidin-1(2H)-yl)phenyl)piperidin-4-yl)methyl)piperidin-4-yl)-2-(4-phenoxyphenyl)-9,10-dihydro-4H-benzo[d]pyrazolo[1,5-a][1,3]diazepine-3-carboxamide] | 317
13.4 | NC(=O)c1c(-c2ccc(Oc3ccccc3)cc2)nn2c1Nc1cc(C(=O)N3CCC(CN4CCN(c5cc6c(cc5F)C(=O)N(C5CCC(=O)NC5=O)C6=O)CC4)CC3)ccc1CC2 (stereo not shown) [Example A20, 6-(4-((4-(2-(2,6-dioxopiperidin-3-yl)-6-fluoro-1,3-dioxoisoindolin-5-yl)piperazin-1-yl)methyl)piperidine-1-carbonyl)-2-(4-phenoxyphenyl)-9,10-dihydro-4H-benzo[d]pyrazolo[1,5-a][1,3]diazepine-3-carboxamide] | > 10000
2.11 | COc1ccc(C(F)(F)F)cc1C(=O)NCc1ccc(-c2nn3c(c2C(N)=O)Nc2ccc(N4CCN(CC5CCN(c6ccc(N7CCC(=O)NC7=O)cc6)CC5)CC4)cc2CC3)c(F)c1 [Example C24, 7-(4-((1-(4-(2,4-dioxotetrahydropyrimidin-1(2H)-yl)phenyl)piperidin-4-yl)methyl)piperazin-1-yl)-2-(2-fluoro-4-((2-methoxy-5-(trifluoromethyl)benzamido)methyl)phenyl)-9,10-dihydro-4H-benzo[d]pyrazolo[1,5-a][1,3]diazepine-3-carboxamide] | > 10000
2.44 | Cc1cc(C(F)(F)F)cc(NC(=O)c2ccc(-c3nn4c(c3C(N)=O)Nc3ccc(N5CCN(CC6CCN(c7ccc(N8CCC(=O)NC8=O)cc7)CC6)CC5)cc3CC4)c(F)c2C)n1 [Example B29, 7-(4-((1-(4-(2,4-dioxotetrahydropyrimidin-1(2H)-yl)phenyl)piperidin-4-yl)methyl)piperazin-1-yl)-2-(2-fluoro-3-methyl-4-((6-methyl-4-(trifluoromethyl)pyridin-2-yl)carbamoyl)phenyl)-9,10-dihydro-4H-benzo[d]pyrazolo[1,5-a][1,3]diazepine-3-carboxamide] | > 10000
2.18 | Cc1cccc(NC(=O)c2ccc(-c3nn4c(c3C(N)=O)Nc3ccc(N5CCN(C(=O)C6CCN(c7ccc(N8CCC(=O)NC8=O)cc7)CC6)CC5)cc3CC4)c(F)c2C)n1 [Example B73, 7-(4-(1-(4-(2,4-dioxotetrahydropyrimidin-1(2H)-yl)phenyl)piperidine-4-carbonyl)piperazin-1-yl)-2-(2-fluoro-3-methyl-4-((6-methylpyridin-2-yl)carbamoyl)phenyl)-9,10-dihydro-4H-benzo[d]pyrazolo[1,5-a][1,3]diazepine-3-carboxamide] | > 10000
